Measurements taken from patent US10464911B2, “1,3,4-oxadiazole sulfamide derivative compounds as histone deacetylase 6 inhibitor, and the pharmaceutical composition comprising the same” (Chong Kun Dang Pharmaceutical Corp., priority 2015, dated 2019).

Target: human recombinant HDAC6 (Homo sapiens (Human), UniProt Q9UBN7)
Assay: HDAC6 enzyme activity inhibition assay (HDAC Fluorimetric Drug Discovery Kit)
Type: biochemical
Conditions: for HDAC6 selectivity (fold): HDAC6 versus HDAC1; for IC50: human recombinant HDAC6, same protocol as HDAC1 test
Description: In order to examine the HDAC6 selectivity of the compounds of formula I of the present invention by HDAC1 and HDAC6 enzymatic activity inhibition assays, an experiment was performed using a conventional substance as a control.
HDAC enzyme activity was measured using a HDAC Fluorimetric Drug Discovery Kit (BML-AK511, 516, Enzo Life Science). For the HDAC1 enzyme activity test, human recombinant HDAC1 (BML-SE456) was used as an enzyme source, and Fluor de Lys®-“SIRT1 (BNL-KI177) was used as a substrate. A 5-fold dilution of the compound was seeded into a 96-well plate, and then 0.3 μg of the enzyme and 10 μM of the substrate were added to each well of the plate and allowed to react at 30 for 60 minutes. Then, Fluor de Lys®-Developer II (BML-KI176) was added thereto and allowed to react for 30 minutes, after which the fluorescence value (Ex 360, Em 460) was measured using a multi-plate reader (Flexstation 3, Molecular Device). The HDAC6 enzyme was tested using human recombinant HDAC6 (382180) (Calbiochem) according to the same protocol as the HDAC1 enzyme activity test method. Based on the resulting values, each IC50 value was calculated using GraphPad Prism4.0 program.

Chain of human recombinant HDAC6 (Q9UBN7 whole entry): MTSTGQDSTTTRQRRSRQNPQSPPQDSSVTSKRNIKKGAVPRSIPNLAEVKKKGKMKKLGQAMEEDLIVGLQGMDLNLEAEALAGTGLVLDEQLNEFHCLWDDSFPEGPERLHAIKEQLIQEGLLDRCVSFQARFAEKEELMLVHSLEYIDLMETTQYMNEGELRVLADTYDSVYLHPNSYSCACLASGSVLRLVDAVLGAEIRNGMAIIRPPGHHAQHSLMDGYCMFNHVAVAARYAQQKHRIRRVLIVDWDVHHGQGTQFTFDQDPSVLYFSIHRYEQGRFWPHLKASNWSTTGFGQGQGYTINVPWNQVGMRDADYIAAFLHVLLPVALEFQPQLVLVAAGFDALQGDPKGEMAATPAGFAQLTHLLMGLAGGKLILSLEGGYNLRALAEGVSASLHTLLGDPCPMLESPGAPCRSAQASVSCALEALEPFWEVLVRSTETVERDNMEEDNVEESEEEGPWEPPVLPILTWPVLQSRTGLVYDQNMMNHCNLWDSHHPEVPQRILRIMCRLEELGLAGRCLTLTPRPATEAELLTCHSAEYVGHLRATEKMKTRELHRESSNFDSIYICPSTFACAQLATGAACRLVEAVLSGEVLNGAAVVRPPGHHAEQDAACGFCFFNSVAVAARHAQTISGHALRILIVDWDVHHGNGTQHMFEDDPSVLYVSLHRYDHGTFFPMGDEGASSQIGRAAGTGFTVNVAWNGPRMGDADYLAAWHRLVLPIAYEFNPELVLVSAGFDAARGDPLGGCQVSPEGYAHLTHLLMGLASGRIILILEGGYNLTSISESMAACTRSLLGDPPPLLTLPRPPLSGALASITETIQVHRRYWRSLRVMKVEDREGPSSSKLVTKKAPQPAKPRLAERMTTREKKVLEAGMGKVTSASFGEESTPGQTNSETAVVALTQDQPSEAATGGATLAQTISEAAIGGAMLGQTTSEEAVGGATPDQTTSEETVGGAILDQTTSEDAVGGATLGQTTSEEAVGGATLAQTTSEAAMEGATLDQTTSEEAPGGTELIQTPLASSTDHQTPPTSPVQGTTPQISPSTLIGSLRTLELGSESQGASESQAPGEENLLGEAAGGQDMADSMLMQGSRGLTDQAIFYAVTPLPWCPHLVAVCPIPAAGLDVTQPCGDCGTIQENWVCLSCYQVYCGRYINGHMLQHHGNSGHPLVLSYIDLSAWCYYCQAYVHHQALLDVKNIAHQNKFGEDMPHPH

HDAC6 selectivity (fold) | IC50 | SMILES
2777 fold | 36 nM | O=S(=O)(N1CCN(C2CCC2)CC1)N(Cc1ccc(-c2nnc(C(F)F)o2)cn1)c1cccc(Cl)c1 [Compound 11831, N-(3-chlorophenyl)-4-cyclobutyl-N-((5-(5-(difluoromethyl)-1,3,4-oxadiazol-2-yl)pyridin-2-yl)methyl)piperazine-1-sulfonamide]
2040 fold | 49 nM | Cc1cccc(N(Cc2ccc(-c3nnc(C(F)F)o3)cn2)S(=O)(=O)N2CCN(C3COC3)CC2)c1 [Compound 11833, N-((5-(5-(difluoromethyl)-1,3,4-oxadiazol-2-yl)pyridin-2-yl)methyl)-4-(oxetan-3-yl)-N-(m-tolyl)piperazine-1-sulfonamide]
2380 fold | 42 nM | Cc1cccc(N(Cc2ccc(-c3nnc(C(F)F)o3)cn2)S(=O)(=O)N2CCN(C3COC3)[C@@H](C)C2)c1 [Compound 11828, (S)—N-((5-(5-(difluoromethyl)-1,3,4-oxadiazol-2-yl)pyridin-2-yl)methyl)-3-methyl-4-(oxetan-3-yl)-N-(m-tolyl)piperazine-1-sulfonamide]
6863 fold | 15 nM | CN1CCN(S(=O)(=O)N(Cc2ccc(-c3nnc(C(F)F)o3)cn2)c2ccccc2)CC1 [Compound 11363, N-((5-(5-(difluoromethyl)-1,3,4-oxadiazol-2-yl)pyridin-2-yl)methyl)-4-methyl-N-phenylpiperazine-1-sulfonamide]
429 fold | 233 nM | CN(CCN1CCN(C2COC2)CC1)S(=O)(=O)N(Cc1ccc(-c2nnc(C(F)F)o2)cc1)c1ccccc1 [Compound 11704, 2-((4-(((N-methyl-N-(2-(4-(oxetan-3-yl)piperazin-1-yl)ethyl)sulfamoyl)(phenyl)amino)methyl))phenyl)-5-(difluoromethyl)-1,3,4-oxadiazole]
4761 fold | 21 nM | O=S(=O)(N1CCN(C2COC2)CC1)N(Cc1ccc(-c2nnc(C(F)F)o2)cn1)c1cccc(Cl)c1 [Compound 11832, N-(3-chlorophenyl)-N-((5-(5-(difluoromethyl)-1,3,4-oxadiazol-2-yl)pyridin-2-yl)methyl)-4-(oxetan-3-yl)piperazine-1-sulfonamide]
819 fold | 122 nM | O=S(=O)(N1CCC2(CC1)CN(C1CCC1)C2)N(Cc1ccc(-c2nnc(C(F)F)o2)cc1)c1ccccc1 [Compound 11789, 2-cyclobutyl-N-(4-(5-(difluoromethyl)-1,3,4-oxadiazol-2-yl)benzyl)-N-phenyl-2,7-diazaspiro[3.5]nonane-7-sulfonamide]
5882 fold | 17 nM | C[C@H]1CN(S(=O)(=O)N(Cc2ccc(-c3nnc(C(F)F)o3)cn2)c2cccc(Cl)c2)CCN1C1COC1 [Compound 11830, (S)—N-(3-chlorophenyl)-N-((5-(5-(difluoromethyl)-1,3,4-oxadiazol-2-yl)pyridin-2-yl)methyl)-3-methyl-4-(oxetan-3-yl)piperazine-1-sulfonamide]
3448 fold | 29 nM | C[C@H]1CN(S(=O)(=O)N(Cc2ccc(-c3nnc(C(F)F)o3)cn2)c2cccc(Cl)c2)CCN1C [Compound 11829, (S)—N-(3-chlorophenyl)-N-((5-(5-(difluoromethyl)-1,3,4-oxadiazol-2-yl)pyridin-2-yl)methyl)-3,4-dimethylpiperazine-1-sulfonamide]
3061 fold | 33 nM | CS(=O)(=O)N1CCN(S(=O)(=O)N(Cc2ccc(-c3nnc(C(F)F)o3)cc2F)c2cccc(F)c2)CC1 [Compound 11314, N-(4-(5-(difluoromethyl)-1,3,4-oxadiazol-2-yl)-2-fluorobenzyl)-N-(3-fluorophenyl)-4-(methylsulfonyl)piperazine-1-sulfonamide]
